{"source": "paper PMC5559473", "about": "“Screening of TB Actives for Activity against Nontuberculous Mycobacteria Delivers High Hit Rates” (Frontiers in Microbiology, 2017)", "key": {"[1]": {"tested_on": "M. avium", "details": "cited from earlier work"}, "[2]": {"tested_on": "M. abscessus", "details": "cited from earlier work"}, "[3]": {"tested_on": "M. abscessus Bamboo", "assay": "Single point growth inhibition screening assay", "assay_type": "cell-based, Mycobacterium abscessus", "details": "20 μM, 3 days"}, "[4]": {"tested_on": "M. avium 11", "assay": "Single point growth inhibition screening assay", "assay_type": "cell-based, Mycobacterium avium", "details": "M. avium 11, 20 μM, 4 days"}, "[5]": {"tested_on": "M. abscessus Bamboo", "assay": "Bactericidal assay (CFU, fold kill)", "assay_type": "cell-based, Mycobacterium abscessus", "details": "10^7 CFU/mL exposed to MIC90 for 3 days, CFU vs starting inoculum"}, "[6]": {"tested_on": "M. avium 11", "assay": "Bactericidal assay (CFU, fold kill)", "assay_type": "cell-based, Mycobacterium avium", "details": "10^7 CFU/mL exposed to MIC90 for 4 days, CFU vs starting inoculum"}, "[7]": {"tested_on": "M. abscessus Bamboo", "assay": "Dose-response growth inhibition (broth microdilution)", "assay_type": "cell-based, Mycobacterium abscessus", "details": "Mycobacteroides abscessus, 72 h, M. abscessus Bamboo, 3 days"}, "[8]": {"tested_on": "M. avium 11", "assay": "Dose-response growth inhibition (broth microdilution)", "assay_type": "cell-based, Mycobacterium avium", "details": "Mycobacterium avium, 96 h, M. avium 11, 4 days"}, "[9]": {"details": "ref Brown-Elliott et al., 2003, Cavusoglu et al., 2007, Aziz et al., 2017"}}, "note": "Several values for one entry are separate records, joined by “and”; a condition that tells them apart may be missing. Equal values may be shown once."}
{"smiles": "CC(C)=CCC/C(C)=C/CNCCNC1C2CC3CC(C2)CC1C3", "note": "(stereo not shown) [SQ109]", "values": [{"measurement": "MIC", "setting": "[1]; ref Sacksteder et al., 2012", "result": "4–16 mg/L and 12–48 μM"}, {"measurement": "MIC", "setting": "[2]; ref Sacksteder et al., 2012", "result": "4–16 mg/L and 12–48 μM"}]}
{"smiles": "COc1nc2ccc(Br)cc2cc1[C@@H](c1ccccc1)[C@@](O)(CCN(C)C)c1cccc2ccccc12", "note": "[bedaquiline]", "values": [{"measurement": "Activity in primary screen (hit = equal or more than 80% growth inhibition)", "setting": "[3]", "result": "showed activity"}, {"measurement": "Activity in primary screen (hit = equal or more than 80% growth inhibition)", "setting": "[4]", "result": "showed activity"}]}
{"smiles": "CC[C@H]1OC(=O)[C@H](C)[C@@H](O[C@H]2C[C@@](C)(OC)[C@@H](O)[C@H](C)O2)[C@H](C)[C@@H](O[C@@H]2O[C@H](C)C[C@H](N(C)C)[C@H]2O)[C@](C)(OC)C[C@@H](C)C(=O)[C@H](C)[C@@H](O)[C@]1(C)O", "note": "[clarithromycin, reference compound]", "values": [{"measurement": "Fold kill at MIC90", "setting": "[5]", "result": "NK (NK, “no kill,” i.e., CFU reduction < 10-fold at MIC90)"}, {"measurement": "Fold kill at MIC90", "setting": "[6]", "result": "NK (NK, “no kill,” i.e., CFU reduction < 10-fold at MIC90)"}, {"measurement": "Concentration required to reduce CFU 10-fold, relative to MIC90", "setting": "[1]; ref Heifets et al., 1992", "result": "up to 64 times"}, {"measurement": "MIC50", "setting": "[7]; read-out: MIC50", "result": "< 0.2", "unit": "µM"}, {"measurement": "MIC90", "setting": "[7]; read-out: MIC90", "result": 0.5, "unit": "µM"}, {"measurement": "Concentration required to reduce CFU 10-fold, relative to MIC90", "setting": "[2]; ref Aziz et al., 2017", "result": "up to 100 times"}, {"measurement": "MIC50", "setting": "[8]; read-out: MIC50", "result": "< 0.2", "unit": "µM"}, {"measurement": "MIC90", "setting": "[8]; read-out: MIC90", "result": 0.6, "unit": "µM"}]}
{"smiles": "C[C@H]1COc2c(N3CCN(C)CC3)c(F)cc3c(=O)c(C(=O)O)cn1c23", "note": "[levofloxacin]", "values": [{"measurement": "Activity in primary screen (hit = equal or more than 80% growth inhibition)", "setting": "[3]", "result": "showed activity"}, {"measurement": "Activity in primary screen (hit = equal or more than 80% growth inhibition)", "setting": "[4]", "result": "showed activity"}]}
{"smiles": "CC(=O)NC[C@H]1CN(c2ccc(N3CCOCC3)c(F)c2)C(=O)O1", "note": "[linezolid]", "values": [{"measurement": "MIC90", "setting": "[1]; [9]", "result": 22, "unit": "µM"}, {"measurement": "MIC90", "setting": "[2]; [9]", "result": 36, "unit": "µM"}]}
